Reference: ChEMBL document CHEMBL4330132, “5-Keto-3-cyano-2,4-diaminothiophenes as selective maternal embryonic leucine zipper kinase inhibitors” (Bioorg Med Chem Lett, 2019)

Key:
[1] = molecular target: Ribosomal protein S6 kinase alpha-1 (Homo sapiens) (UniProt Q15418); assay: Binding affinity to wild-type human partial length N-terminal RSK1 Kinase domain 1 (M1 to E388 residues) expressed in bacterial expression system assessed as residual binding level at 1 uM by Kinomescan method relative to control
[2] = molecular target: Mitogen-activated protein kinase 14 (Homo sapiens) (UniProt Q16539); assay: Binding affinity to wild-type human full length p38-alpha (M1 to S360 residues) expressed in bacterial expression system assessed as residual binding level at 1 uM by Kinomescan method relative to control
[3] = molecular target: 5'-AMP-activated protein kinase catalytic subunit alpha-2 (Homo sapiens) (UniProt P54646); assay: Binding affinity to wild-type human partial length AMPK alpha2 (M1 to E306 residues) expressed in bacterial expression system assessed as residual binding level at 1 uM by Kinomescan method relative to control
[4] = molecular target: Tyrosine-protein kinase FRK (Homo sapiens) (UniProt P42685); assay: Binding affinity to wild-type human partial length FRK (A215 to F503 residues) expressed in bacterial expression system assessed as residual binding level at 1 uM by Kinomescan method relative to control
[5] = molecular target: Serine/threonine-protein kinase TAO2 (Homo sapiens) (UniProt Q9UL54); assay: Binding affinity to wild-type human partial length TAOK2 (M1 to A320 residues) expressed in mammalian expression system assessed as residual binding level at 1 uM by Kinomescan method relative to control
[6] = molecular target: Phosphatidylinositol 5-phosphate 4-kinase type-2 gamma (Homo sapiens) (UniProt Q8TBX8); assay: Binding affinity to wild-type human partial length PIP5K2C (M1 to A421 residues) expressed in mammalian expression system assessed as residual binding level at 1 uM by Kinomescan method relative to control
[7] = molecular target: Serine/threonine-protein kinase TAO1 (Homo sapiens) (UniProt Q7L7X3); assay: Binding affinity to wild-type human partial length TAOK1 (M1 to A320 residues) expressed in mammalian expression system assessed as residual binding level at 1 uM by Kinomescan method relative to control
[8] = molecular target: Serine/threonine-protein kinase NLK (Homo sapiens) (UniProt Q9UBE8); assay: Binding affinity to wild-type human full length NLK (M13 to E527 residues) expressed in bacterial expression system assessed as residual binding level at 1 uM by Kinomescan method relative to control
[9] = molecular target: TGF-beta receptor type-2 (Homo sapiens) (UniProt P37173); assay: Binding affinity to wild-type human partial length TGFBR2 (I218 to K567 residues) expressed in bacterial expression system assessed as residual binding level at 1 uM by Kinomescan method relative to control
[10] = molecular target: Serine/threonine-protein kinase ICK (Homo sapiens) (UniProt Q9UPZ9); assay: Binding affinity to wild-type human partial length ICK (M1 to P314 residues) expressed in mammalian expression system assessed as residual binding level at 1 uM by Kinomescan method relative to control
[11] = molecular target: Dual serine/threonine and tyrosine protein kinase (Homo sapiens) (UniProt Q6XUX3); assay: Binding affinity to wild-type human full length RIPK5 (M1 to T929 residues) expressed in mammalian expression system assessed as residual binding level at 1 uM by Kinomescan method relative to control
[12] = molecular target: Cyclin-dependent kinase 2 (Homo sapiens) (UniProt P24941); assay: Binding affinity to wild-type human full length CDK2 (M1 to L298 residues) expressed in bacterial expression system assessed as residual binding level at 1 uM by Kinomescan method relative to control
[13] = molecular target: Mitogen-activated protein kinase 7 (Homo sapiens) (UniProt Q13164); assay: Binding affinity to wild-type human partial length ERK5 (M1 to A409 residues) expressed in bacterial expression system assessed as residual binding level at 1 uM by Kinomescan method relative to control
[14] = molecular target: Cyclin-G-associated kinase (Homo sapiens) (UniProt O14976); assay: Binding affinity to wild-type human partial length GAK (G13 to Y338 residues) expressed in bacterial expression system assessed as residual binding level at 1 uM by Kinomescan method relative to control
[15] = molecular target: Epithelial discoidin domain-containing receptor 1 (Homo sapiens) (UniProt Q08345); assay: Binding affinity to wild-type human partial length DDR1 (R565 to V876 residues) expressed in bacterial expression system assessed as residual binding level at 1 uM by Kinomescan method relative to control
[16] = molecular target: Ribosomal protein S6 kinase alpha-5 (Homo sapiens) (UniProt O75582); assay: Binding affinity to wild-type human partial length C-terminal RPS6KA5 kinase domain 2 (V390 to T718 residues) expressed in bacterial expression system assessed as residual binding level at 1 uM by Kinomescan method relative to control
[17] = molecular target: Focal adhesion kinase 1 (Homo sapiens) (UniProt Q05397); assay: Binding affinity to wild-type human partial length FAK (D402 to R696 residues) expressed in bacterial expression system assessed as residual binding level at 1 uM by Kinomescan method relative to control
[18] = molecular target: MAP kinase-activated protein kinase 2 (Homo sapiens) (UniProt P49137); assay: Binding affinity to wild-type human partial length MAPKAPK2 (V48 to D345 residues) expressed in bacterial expression system assessed as residual binding level at 1 uM by Kinomescan method relative to control
[19] = molecular target: cAMP-dependent protein kinase catalytic subunit alpha (Homo sapiens) (UniProt P17612); assay: Binding affinity to wild-type human partial length PKAC-alpha (G10 to F351 residues) expressed in bacterial expression system assessed as residual binding level at 1 uM by Kinomescan method relative to control
[20] = molecular target: Transient receptor potential cation channel subfamily M member 6 (Homo sapiens) (UniProt Q9BX84); assay: Binding affinity to wild-type human partial length TRPM6 (Q1723 to I1998 residues) expressed in mammalian expression system assessed as residual binding level at 1 uM by Kinomescan method relative to control
[21] = molecular target: Epidermal growth factor receptor (Homo sapiens) (UniProt P00533); assay: Binding affinity to wild-type human partial length EGFR (R669 to V1011 residues) expressed in bacterial expression system assessed as residual binding level at 1 uM by Kinomescan method relative to control
[22] = molecular target: Serine/threonine-protein kinase 32A (Homo sapiens) (UniProt Q8WU08); assay: Binding affinity to wild-type human full length YANK1 (M1 to L396 residues) expressed in mammalian expression system assessed as residual binding level at 1 uM by Kinomescan method relative to control
[23] = molecular target: Mitogen-activated protein kinase kinase kinase 13 (Homo sapiens) (UniProt O43283); assay: Binding affinity to wild-type human full length LZK (M1 to W966 residues) expressed in mammalian expression system assessed as residual binding level at 1 uM by Kinomescan method relative to control
[24] = molecular target: Serine/threonine-protein kinase RIO2 (Homo sapiens) (UniProt Q9BVS4); assay: Binding affinity to wild-type human partial length RIOK2 (M1 to D313 residues) expressed in mammalian expression system assessed as residual binding level at 1 uM by Kinomescan method relative to control

Serine/threonine-protein kinase TAO2 (Homo sapiens), sequence (Q9UL54 whole entry, the tested form may be a part): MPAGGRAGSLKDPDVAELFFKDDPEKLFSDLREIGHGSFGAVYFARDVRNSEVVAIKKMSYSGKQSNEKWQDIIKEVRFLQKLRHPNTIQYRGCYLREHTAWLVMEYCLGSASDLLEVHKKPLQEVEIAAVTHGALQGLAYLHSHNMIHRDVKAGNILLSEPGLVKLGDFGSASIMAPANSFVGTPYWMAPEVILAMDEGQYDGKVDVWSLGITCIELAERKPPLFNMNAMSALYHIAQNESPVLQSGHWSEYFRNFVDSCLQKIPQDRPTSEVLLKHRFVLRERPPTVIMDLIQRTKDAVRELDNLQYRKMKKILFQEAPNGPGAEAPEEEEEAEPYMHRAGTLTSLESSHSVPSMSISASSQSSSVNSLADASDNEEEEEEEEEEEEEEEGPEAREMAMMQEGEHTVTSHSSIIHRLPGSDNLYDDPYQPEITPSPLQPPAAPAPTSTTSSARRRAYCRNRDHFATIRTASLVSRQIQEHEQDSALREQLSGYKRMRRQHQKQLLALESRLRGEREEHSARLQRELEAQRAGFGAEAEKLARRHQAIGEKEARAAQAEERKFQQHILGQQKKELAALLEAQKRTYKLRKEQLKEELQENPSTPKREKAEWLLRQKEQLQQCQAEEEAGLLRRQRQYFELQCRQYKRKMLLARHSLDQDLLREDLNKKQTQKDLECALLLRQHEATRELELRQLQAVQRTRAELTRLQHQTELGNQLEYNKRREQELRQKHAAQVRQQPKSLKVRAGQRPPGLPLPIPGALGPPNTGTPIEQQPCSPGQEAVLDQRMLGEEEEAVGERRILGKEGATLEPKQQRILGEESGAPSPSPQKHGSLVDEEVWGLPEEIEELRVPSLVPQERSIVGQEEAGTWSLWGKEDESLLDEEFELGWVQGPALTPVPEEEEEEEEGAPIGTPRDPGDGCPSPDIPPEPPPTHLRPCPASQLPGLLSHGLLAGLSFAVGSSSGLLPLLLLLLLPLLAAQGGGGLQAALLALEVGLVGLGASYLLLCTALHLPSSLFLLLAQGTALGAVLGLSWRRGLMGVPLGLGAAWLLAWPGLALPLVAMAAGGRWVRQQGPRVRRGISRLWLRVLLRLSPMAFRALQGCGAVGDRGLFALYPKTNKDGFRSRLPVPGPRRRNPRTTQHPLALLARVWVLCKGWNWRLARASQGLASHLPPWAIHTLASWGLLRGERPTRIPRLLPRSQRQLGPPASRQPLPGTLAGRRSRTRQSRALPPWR
Serine/threonine-protein kinase ICK (Homo sapiens), sequence (Q9UPZ9 whole entry, the tested form may be a part): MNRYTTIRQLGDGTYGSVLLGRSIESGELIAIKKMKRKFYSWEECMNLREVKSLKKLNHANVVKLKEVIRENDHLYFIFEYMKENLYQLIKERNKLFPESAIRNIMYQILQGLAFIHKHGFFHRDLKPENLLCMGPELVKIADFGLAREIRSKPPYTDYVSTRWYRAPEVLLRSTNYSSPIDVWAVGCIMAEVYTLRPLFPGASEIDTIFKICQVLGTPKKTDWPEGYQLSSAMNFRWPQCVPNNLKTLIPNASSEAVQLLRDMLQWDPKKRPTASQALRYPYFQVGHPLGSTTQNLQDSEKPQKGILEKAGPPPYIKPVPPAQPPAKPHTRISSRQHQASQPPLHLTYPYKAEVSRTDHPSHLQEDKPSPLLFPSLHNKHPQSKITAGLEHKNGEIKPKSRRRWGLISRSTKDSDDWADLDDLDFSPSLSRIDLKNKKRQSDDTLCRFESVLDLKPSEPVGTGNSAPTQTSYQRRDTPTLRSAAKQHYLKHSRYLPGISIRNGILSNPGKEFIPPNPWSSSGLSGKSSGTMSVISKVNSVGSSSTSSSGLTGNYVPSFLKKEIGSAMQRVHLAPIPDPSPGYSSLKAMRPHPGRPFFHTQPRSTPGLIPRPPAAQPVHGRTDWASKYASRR
MAP kinase-activated protein kinase 2 (Homo sapiens), sequence (P49137 whole entry, looked up, the tested form may be a part): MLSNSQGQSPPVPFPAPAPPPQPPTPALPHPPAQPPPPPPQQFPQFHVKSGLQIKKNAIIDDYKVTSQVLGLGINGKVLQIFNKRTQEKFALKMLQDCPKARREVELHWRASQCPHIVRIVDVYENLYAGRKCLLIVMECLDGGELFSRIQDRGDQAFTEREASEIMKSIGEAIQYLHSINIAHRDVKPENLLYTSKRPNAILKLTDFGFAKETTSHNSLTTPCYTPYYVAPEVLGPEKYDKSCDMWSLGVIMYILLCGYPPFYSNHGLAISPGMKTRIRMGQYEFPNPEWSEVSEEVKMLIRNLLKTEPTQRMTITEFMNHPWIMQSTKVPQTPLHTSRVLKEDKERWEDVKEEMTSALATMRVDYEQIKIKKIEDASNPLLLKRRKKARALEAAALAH
Serine/threonine-protein kinase TAO1 (Homo sapiens), sequence (Q7L7X3 whole entry, the tested form may be a part): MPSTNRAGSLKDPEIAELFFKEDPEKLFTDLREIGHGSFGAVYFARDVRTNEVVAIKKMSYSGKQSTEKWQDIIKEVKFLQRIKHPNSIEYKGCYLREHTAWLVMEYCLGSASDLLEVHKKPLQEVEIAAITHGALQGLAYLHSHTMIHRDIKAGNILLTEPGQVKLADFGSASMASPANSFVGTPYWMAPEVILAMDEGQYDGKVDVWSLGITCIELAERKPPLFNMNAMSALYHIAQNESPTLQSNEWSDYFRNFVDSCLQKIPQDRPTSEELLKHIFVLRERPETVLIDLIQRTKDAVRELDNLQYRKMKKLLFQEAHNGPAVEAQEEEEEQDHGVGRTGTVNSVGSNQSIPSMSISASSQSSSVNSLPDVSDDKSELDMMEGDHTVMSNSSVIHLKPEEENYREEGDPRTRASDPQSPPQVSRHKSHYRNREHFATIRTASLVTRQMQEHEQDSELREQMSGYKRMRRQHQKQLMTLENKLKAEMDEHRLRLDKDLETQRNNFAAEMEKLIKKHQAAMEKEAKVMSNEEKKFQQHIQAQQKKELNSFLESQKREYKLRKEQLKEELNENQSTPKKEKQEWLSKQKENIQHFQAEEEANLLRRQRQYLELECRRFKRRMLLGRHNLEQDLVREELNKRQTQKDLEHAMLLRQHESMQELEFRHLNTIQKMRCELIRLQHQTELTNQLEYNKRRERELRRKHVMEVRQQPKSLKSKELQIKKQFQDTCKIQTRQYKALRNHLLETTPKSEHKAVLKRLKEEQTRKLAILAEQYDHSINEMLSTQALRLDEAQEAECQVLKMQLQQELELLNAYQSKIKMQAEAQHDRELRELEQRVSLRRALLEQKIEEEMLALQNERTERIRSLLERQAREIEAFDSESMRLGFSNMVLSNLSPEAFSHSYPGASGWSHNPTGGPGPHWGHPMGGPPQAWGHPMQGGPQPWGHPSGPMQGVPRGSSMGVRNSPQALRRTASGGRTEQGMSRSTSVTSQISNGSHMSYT
Focal adhesion kinase 1 (Homo sapiens), sequence (Q05397 2-1052 limits assumed): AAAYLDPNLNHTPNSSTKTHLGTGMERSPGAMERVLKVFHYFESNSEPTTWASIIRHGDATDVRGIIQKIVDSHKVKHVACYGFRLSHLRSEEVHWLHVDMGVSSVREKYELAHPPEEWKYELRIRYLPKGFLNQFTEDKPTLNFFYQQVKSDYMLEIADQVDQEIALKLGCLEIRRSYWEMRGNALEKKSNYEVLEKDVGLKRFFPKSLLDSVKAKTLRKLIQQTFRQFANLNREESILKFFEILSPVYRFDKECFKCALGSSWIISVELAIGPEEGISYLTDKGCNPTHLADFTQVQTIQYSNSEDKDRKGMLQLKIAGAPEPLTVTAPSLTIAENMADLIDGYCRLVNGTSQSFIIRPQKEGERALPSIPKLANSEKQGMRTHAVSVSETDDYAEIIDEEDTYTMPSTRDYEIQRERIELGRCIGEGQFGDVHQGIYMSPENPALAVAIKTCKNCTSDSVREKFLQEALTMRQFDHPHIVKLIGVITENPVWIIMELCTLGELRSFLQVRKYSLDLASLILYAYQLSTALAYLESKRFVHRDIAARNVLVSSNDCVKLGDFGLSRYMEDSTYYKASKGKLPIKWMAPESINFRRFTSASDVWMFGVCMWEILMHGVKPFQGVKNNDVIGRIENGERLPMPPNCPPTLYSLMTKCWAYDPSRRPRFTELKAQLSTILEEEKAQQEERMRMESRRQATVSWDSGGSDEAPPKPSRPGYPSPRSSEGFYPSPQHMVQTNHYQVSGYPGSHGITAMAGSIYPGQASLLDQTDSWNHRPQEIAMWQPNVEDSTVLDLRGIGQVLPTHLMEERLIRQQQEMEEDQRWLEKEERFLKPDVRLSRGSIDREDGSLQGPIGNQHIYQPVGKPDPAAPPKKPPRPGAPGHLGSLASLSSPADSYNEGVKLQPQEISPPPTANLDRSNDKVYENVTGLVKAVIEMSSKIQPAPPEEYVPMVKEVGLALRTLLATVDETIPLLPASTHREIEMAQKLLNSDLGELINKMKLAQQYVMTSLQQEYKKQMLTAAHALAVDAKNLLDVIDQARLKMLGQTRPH
Tyrosine-protein kinase FRK (Homo sapiens), sequence (P42685 whole entry, the tested form may be a part): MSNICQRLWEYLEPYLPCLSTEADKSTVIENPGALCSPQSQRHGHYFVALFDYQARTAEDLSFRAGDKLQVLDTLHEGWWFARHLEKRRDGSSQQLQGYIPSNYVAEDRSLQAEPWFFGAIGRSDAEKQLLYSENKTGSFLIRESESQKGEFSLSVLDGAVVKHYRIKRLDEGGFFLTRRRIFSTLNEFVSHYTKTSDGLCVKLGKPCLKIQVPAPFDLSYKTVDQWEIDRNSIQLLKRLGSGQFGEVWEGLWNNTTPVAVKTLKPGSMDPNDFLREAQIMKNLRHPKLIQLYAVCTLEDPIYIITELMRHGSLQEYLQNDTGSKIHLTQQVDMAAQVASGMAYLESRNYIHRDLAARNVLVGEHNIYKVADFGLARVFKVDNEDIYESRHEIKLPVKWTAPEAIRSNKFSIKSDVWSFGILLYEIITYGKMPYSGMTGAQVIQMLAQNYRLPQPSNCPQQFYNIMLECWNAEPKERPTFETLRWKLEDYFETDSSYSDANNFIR

Molecule CC(C)Nc1sc(C(=O)c2ccc(Cl)s2)c(N)c1C#N has an Activity [1] of 84%, an Activity [2] of 95% and an Activity [3] of 100%. The Activity [4] was 76%, the Activity [5] was 100% and the Activity [6] was 100%. The Activity [7] was 100%, the Activity [8] was 79% and the Activity [9] was 100%. For the same molecule, the Activity [10] was 100%, the Activity [11] was 85% and the Activity [12] was 66%. For the same molecule, the Activity [13] was 100%, the Activity [14] was 24% and the Activity [15] was 63%. The Activity [16] was 77%, the Activity [17] was 74% and the Activity [18] was 83%. For the same molecule, the Activity [19] was 85%, the Activity [20] was 92% and the Activity [21] was 89%. For the same molecule, the Activity [22] was 98%, the Activity [23] was 92% and the Activity [24] was 100%.
